Laboratory results as given in US11655216B2 (priority 2016, dated 2023).
Like-named read-outs stand apart in the source and are kept apart here.

What was measured:
[1] = biological target: T1, glutathione-S-transferase (GST) tagged LXRalpha LBD (ligand binding domain) (Homo sapiens, UniProt Q13133); assay: biochemical; conditions: for EC50 / LXR alpha IP: potency (Inflection Point), compound-induced co-activator recruitment, TR-FRET
T1 construct: purchased Invitrogen pv4655
T1 sequence (Q13133 209-447 limits assumed): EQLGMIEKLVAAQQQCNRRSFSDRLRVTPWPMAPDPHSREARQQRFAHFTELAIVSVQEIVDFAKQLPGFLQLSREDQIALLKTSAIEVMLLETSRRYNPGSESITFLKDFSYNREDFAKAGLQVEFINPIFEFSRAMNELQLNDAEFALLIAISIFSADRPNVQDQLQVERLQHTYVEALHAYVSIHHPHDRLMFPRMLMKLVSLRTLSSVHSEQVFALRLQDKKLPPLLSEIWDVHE
How it was run: (§1)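 TR-FRET read-out of coactivator recruitment: fluorescein-coactivator peptide plus Tb-anti-GST antibody added to LBD preincubated with compound; incubated at RT before reading.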

[2] = biological target: T2, glutathione-S-transferase (GST) tagged LXRbeta LBD (ligand binding domain) (Homo sapiens, UniProt P55055); assay: LanthaScreen TR-FRET Liver X Receptor Coactivator Assay, LXR beta; format: biochemical; conditions: for EC50: LXR beta IP, potency (Inflection Point), compound-induced co-activator recruitment, TR-FRET; for Emax: read-out: LXR beta actiivty at max dose, efficacy (% Emax) in relation to reference dual agonist T0901317; for LXR beta actiivty at max dose: efficacy (% Emax) in relation to reference dual agonist T0901317
T2 construct: purchased Invitrogen pv4658
T2 sequence (P55055 222-460 limits assumed): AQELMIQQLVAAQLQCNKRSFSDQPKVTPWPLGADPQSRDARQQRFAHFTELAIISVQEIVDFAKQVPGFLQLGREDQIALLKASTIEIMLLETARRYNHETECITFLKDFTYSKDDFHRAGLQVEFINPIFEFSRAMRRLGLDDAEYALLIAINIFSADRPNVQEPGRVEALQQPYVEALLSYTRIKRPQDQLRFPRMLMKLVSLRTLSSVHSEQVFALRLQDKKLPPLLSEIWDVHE
How it was run: as §1

[3] = efficacy (% Emax) in relation to reference dual agonist T0901317, read-out: LXR alpha actiivty at max dose
[4] = read-out: LXR alpha actiivty at max dose, efficacy (% Emax) in relation to reference dual agonist T0901317
[5] = efficacy (% Emax) in relation to reference dual agonist T0901317

EC50 ([1]; LXR alpha IP)	LXR beta actiivty at max dose [2]	LXR alpha actiivty at max dose [1, 5]	SMILES	Emax [1, 3]	EC50 ([1]; read-out: LXR alpha IP)	EC50 [2]	Emax [2]	Emax [1, 4]	LXR alpha IP [1]
–	–	–	CN(C)C(=O)c1ccc(OCC(F)CCC2CCN(C(=O)C(O)(c3ccccc3)C(F)(F)F)CC2)cc1Cl (single isomer, unassigned) [Example 20-1, 2-chloro-4-(2-fluoro-4-(1-((R or S)-3,3,3-trifluoro-2-hydroxy-2-phenylpropanoyl)piperidin-4-yl)butoxy)-N,N-dimethylbenzamide]	26%	1430 nM	80 nM	72%	–	–
–	–	–	CN(C)C(=O)c1ccc(OC[C@@H](F)CCC2CCN(C(=O)[C@](O)(c3ccccc3)C(F)(F)F)CC2)cc1Cl (single isomer, unassigned) [Example 20-2, 2-chloro-4-((S or R)-2-fluoro-4-(1-((R or S)-3,3,3-trifluoro-2-hydroxy-2-phenylpropanoyl)piperidin-4-yl)butoxy)-N,N-dimethylbenzamide]	–	1490 nM	71 nM	73%	25%	–
–	–	–	COc1cccc(C(O)(C(=O)N2CCC(C(F)CCCOc3ccc(C(=O)N(C)C)c(Cl)c3)CC2)C(F)(F)F)c1 (single isomer, unassigned) [Example 21-1, 2-chloro-4-(4-fluoro-4-(1-((R or S)-3,3,3-trifluoro-2-hydroxy-2-(3-methoxyphenyl)propanoyl)piperidin-4-yl)butoxy)-N,N-dimethylbenzamide]	27%	422 nM	9 nM	75%	–	–
–	–	–	COc1cccc(C(O)(C(=O)N2CCC(C(F)(F)CCCOc3ccc(C(=O)N(C)C)c(Cl)c3)CC2)C(F)(F)F)c1 (single isomer, unassigned) [Example 22-1, (R or S)-2-chloro-4-(4,4-difluoro-4-(1-(3,3,3-trifluoro-2-hydroxy-2-(3-methoxyphenyl)propanoyl)piperidin-4-yl)butoxy)-N,N-dimethylbenzamide]	32%	212 nM	7 nM	67%	–	–
–	–	–	CC(CCC1CCN(C(=O)[C@](O)(c2ccccc2)C(F)(F)F)CC1)COc1ccc(C(=O)N(C)C)c(Cl)c1 (single isomer, unassigned) [Example 23-1, 2-chloro-N,N-dimethyl-4-((R or S)-2-methyl-4-(1-((R or S)-3,3,3-trifluoro-2-hydroxy-2-phenylpropanoyl)piperidin-4-yl)butoxy)benzamide]	23%	436 nM	24 nM	74%	–	–
–	–	–	COc1cccc([C@](O)(C(=O)N2CCC(CC[C@H](C)COc3ccc(C(=O)N(C)C)c(Cl)c3)CC2)C(F)(F)F)c1 (single isomer, unassigned) [Example 23-2, 2-chloro-N,N-dimethyl-4-((S or R)-2-methyl-4-(1-((S or R)-3,3,3-trifluoro-2-hydroxy-2-(3-methoxyphenyl)propanoyl)piperidin-4-yl)butoxy)benzamide]	–	–	19 nM	53%	0%	No IP
–	–	–	COc1cccc([C@@](O)(C(=O)N2CCC(CC[C@H](C)COc3ccc(C(N)=O)c(Cl)c3)CC2)C(F)(F)F)c1 (single isomer, unassigned) [Example 24-1, 2-chloro-4-((R or S)-2-methyl-4-(1-((S or R)-3,3,3-trifluoro-2-hydroxy-2-(3-methoxyphenyl)propanoyl)piperidin-4-yl)butoxy)benzamide]	14%	–	33 nM	54%	–	No IP
–	–	–	C[C@H](CCCC1CCN(C(=O)[C@](O)(c2ccccc2)C(F)(F)F)CC1)Oc1ccc(C(=O)N(C)C)c(Cl)c1 (single isomer, unassigned) [Example 25-1, 2-chloro-N,N-dimethyl-4-((R or S)-5-(1-((R or S)-3,3,3-trifluoro-2-hydroxy-2-phenylpropanoyl)piperidin-4-yl)pentan-2-yloxy)benzamide]	29%	1160 nM	101 nM	91%	–	–
1360 nM	–	–	COc1cccc([C@](O)(C(=O)N2CCC(CCCC(C)Oc3ccc(C(=O)N(C)C)c(Cl)c3)CC2)C(F)(F)F)c1 (single isomer, unassigned) [Example 25-2, 2-chloro-N,N-dimethyl-4-((R or S)-5-(1-((S or R)-3,3,3-trifluoro-2-hydroxy-2-(3-methoxyphenyl)propanoyl)piperidin-4-yl)pentan-2-yloxy)benzamide]	–	–	98 nM	84%	12%	–
–	–	–	COc1cccc(C(O)(C(=O)N2CCC(C(C)CCCOc3ccc(C(=O)N(C)C)c(Cl)c3)CC2)C(F)(F)F)c1 (single isomer, unassigned) [Example 26-1, 2-chloro-N,N-dimethyl-4-((R or S)-4-(1-((R or S)-3,3,3-trifluoro-2-hydroxy-2-(3-methoxyphenyl)propanoyl)piperidin-4-yl)pentyloxy)benzamide]	12%	236 nM	8 nM	65%	–	–
103 nM	71%	–	CC(CCCOc1ccc(C(=O)N(C)C)c(Cl)c1)C1CCN(C(=O)C(O)(c2ccccc2)C(F)(F)F)CC1 (single isomer, unassigned) [Example 26-2, 2-chloro-N,N-dimethyl-4-((R or S)-4-(1-((R or S)-3,3,3-trifluoro-2-hydroxy-2-phenylpropanoyl)piperidin-4-yl)pentyloxy)benzamide]	–	–	6 nM	–	41%	–
125 nM	77%	48%	CC(CCCOc1ccc(C(=O)N(C)C)c(Cl)c1)C1CCN(C(=O)C(O)(c2ccccc2)C(F)(F)F)CC1 (single isomer, unassigned) [Example 26-3, 2-chloro-N,N-dimethyl-4-((S or R)-4-(1-((R or S)-3,3,3-trifluoro-2-hydroxy-2-phenylpropanoyl)piperidin-4-yl)pentyloxy)benzamide]	–	–	6 nM	–	–	–
669 nM	114%	35%	CC(CCCOc1ccc(C(=O)N(C)C)c(Cl)c1)C1CCN(C(=O)C(O)(c2ccccc2)C(F)(F)F)CC1 (single isomer, unassigned) [Example 26-4, 2-chloro-N,N-dimethyl-4-((S or R)-4-(1-((S or R)-3,3,3-trifluoro-2-hydroxy-2-phenylpropanoyl)piperidin-4-yl)pentyloxy)benzamide]	–	–	41 nM	–	–	–
–	–	–	COc1cccc([C@@](O)(C(=O)N2CCC(C[C@@H](C)CCOc3ccc(C(=O)N(C)C)c(Cl)c3)CC2)C(F)(F)F)c1 (single isomer, unassigned) [Example 27-1, 2-chloro-N,N-dimethyl-4-((R or S)-3-methyl-4-(1-((R or S)-3,3,3-trifluoro-2-hydroxy-2-(3-methoxyphenyl)propanoyl)piperidin-4-yl)butoxy)benzamide]	23%	74 nM	5 nM	70%	–	–
–	–	–	COc1cccc([C@@](O)(C(=O)N2CCC(CC(C)CC(F)(F)Oc3ccc(C(=O)N(C)C)c(Cl)c3)CC2)C(F)(F)F)c1 (single isomer, unassigned) [Example 28-1, 2-chloro-4-((R or S)-1,1-difluoro-3-methyl-4-(1-((R or S)-3,3,3-trifluoro-2-hydroxy-2-(3-methoxyphenyl)propanoyl)piperidin-4-yl)butoxy)-N,N-dimethylbenzamide]	–	–	65 nM	62%	0%	No IP

SMILES	EC50 ([1]; LXR alpha IP)	LXR beta actiivty at max dose [2]	LXR alpha actiivty at max dose [1, 5]	Emax [1, 3]	EC50 ([1]; read-out: LXR alpha IP)	EC50 [2]	Emax [2]	Emax [1, 4]	LXR alpha IP [1]
C[C@@H](CCC1CCN(C(=O)[C@](O)(c2cc(F)cc(F)c2)C(F)(F)F)CC1)COc1ccc(C(=O)N(C)C)c(Cl)c1 (single isomer, unassigned) [Example 23-3, 2-chloro-4-((S or R)-4-(1-((R or S)-2-(3,5-difluorophenyl)-3,3,3-trifluoro-2-hydroxypropanoyl)piperidin-4-yl)-2-methylbutoxy)-N,N-dimethylbenzamide]	150 nM	–	–	–	–	12 nM	89%	42%	–
CNC(=O)c1ccc(OC[C@@H](C)CCC2CCN(C(=O)[C@@](O)(c3cccc(OC)c3)C(F)(F)F)CC2)cc1Cl (single isomer, unassigned) [Example 23-4, 2-chloro-N-methyl-4-((S or R)-2-methyl-4-(1-((S or trifluoro-2-hydroxy-2-(3-methoxyphenyl)propanoyl)piperidin-4-yl)butoxy)benzamide]	717 nM	–	–	–	–	60 nM	53%	9%	–
